Structures can show the parent of a compound that is named as a salt.

The target in assay [1] is MET (human) (Homo sapiens, UniProt P08581). The assay can be described thus: MET (human)-Km of ATP AlphaScreen kinase assay. The following applies: biochemical, ATP at Km. As to the method: MET (human)-Km of ATP: MET assay is performed in a 384 well assay containing 200 ng/μL biotinylated poly(Glu, Tyr), 0.334 mM vanadate, desired concentration of ATP optimized for the enzyme in assay buffer (50 mM HEPES (pH=7.4), 5 mM MgCl2, 5 mM MnCl2, and 1% glycerol). Desired compound is added in a final concentration of 1% DMSO with control being vehicle of DMSO alone. MET is diluted to the optimized concentration (optimized on a lot-by-lot basis) in an enzyme diluent buffer (50 mM Tris pH=7.4, 1% glycerol, 0.03% Brij35, 0.24 mM EGTA, 1 mM DTT, and 0.003% BSA). Enzyme is added to initiate the reaction and incubated for 60 min at RT. In subdued light, appropriate amount of PT66 donor and acceptor beads (diluted 1:260 from manufacturer's provision in a 25 mM Tris HCl (pH=7.5), 400 mM NaCl, 100 mM EDTA, 0.3% BSA buffer) are added to the wells. The plates, incubated for 1 h, are read on an AlphaQuest plate reader

In assay [2] the target is RON (human) (Homo sapiens, UniProt Q04912). The assay can be described thus: RON (human)-Km of ATP AlphaScreen kinase assay. Particulars: biochemical, ATP at Km. The procedure: RON (human)-Km of ATP: RON assay is performed in a 384 well assay containing 200 ng/μL biotinylated poly(Glu, Tyr), 0.334 mM vanadate, desired concentration of ATP optimized for the enzyme in assay buffer (50 mM HEPES (pH=7.4), 12.5 mM MgCl2 and 1% glycerol). Desired compound is added in a final concentration of 1% DMSO with control being vehicle of DMSO alone. RON is diluted to the optimized (on a lot-by-lot basis) concentration in an enzyme diluent buffer (50 mM HEPES pH=7.4, 12.5 mM MgCl2 and 1% glycerol, 0.03% Brij35, 0.3 mM EGTA, 1 mM DTT, and 0.003% BSA). Enzyme is added to initiate the reaction and incubated for 30 min at RT. In subdued light, appropriate amount of PT66 donor and acceptor beads (diluted 1:260 from manufacturer's provision in a 25 mM Tris HCl (pH=7.5), 200 mM NaCl, 100 mM EDTA, 0.3% BSA buffer) are added to the wells. The plates, incubated for 1 h, are read on an AlphaQuest plate reader.
Chain of RON (human) (Q04912 25-1400): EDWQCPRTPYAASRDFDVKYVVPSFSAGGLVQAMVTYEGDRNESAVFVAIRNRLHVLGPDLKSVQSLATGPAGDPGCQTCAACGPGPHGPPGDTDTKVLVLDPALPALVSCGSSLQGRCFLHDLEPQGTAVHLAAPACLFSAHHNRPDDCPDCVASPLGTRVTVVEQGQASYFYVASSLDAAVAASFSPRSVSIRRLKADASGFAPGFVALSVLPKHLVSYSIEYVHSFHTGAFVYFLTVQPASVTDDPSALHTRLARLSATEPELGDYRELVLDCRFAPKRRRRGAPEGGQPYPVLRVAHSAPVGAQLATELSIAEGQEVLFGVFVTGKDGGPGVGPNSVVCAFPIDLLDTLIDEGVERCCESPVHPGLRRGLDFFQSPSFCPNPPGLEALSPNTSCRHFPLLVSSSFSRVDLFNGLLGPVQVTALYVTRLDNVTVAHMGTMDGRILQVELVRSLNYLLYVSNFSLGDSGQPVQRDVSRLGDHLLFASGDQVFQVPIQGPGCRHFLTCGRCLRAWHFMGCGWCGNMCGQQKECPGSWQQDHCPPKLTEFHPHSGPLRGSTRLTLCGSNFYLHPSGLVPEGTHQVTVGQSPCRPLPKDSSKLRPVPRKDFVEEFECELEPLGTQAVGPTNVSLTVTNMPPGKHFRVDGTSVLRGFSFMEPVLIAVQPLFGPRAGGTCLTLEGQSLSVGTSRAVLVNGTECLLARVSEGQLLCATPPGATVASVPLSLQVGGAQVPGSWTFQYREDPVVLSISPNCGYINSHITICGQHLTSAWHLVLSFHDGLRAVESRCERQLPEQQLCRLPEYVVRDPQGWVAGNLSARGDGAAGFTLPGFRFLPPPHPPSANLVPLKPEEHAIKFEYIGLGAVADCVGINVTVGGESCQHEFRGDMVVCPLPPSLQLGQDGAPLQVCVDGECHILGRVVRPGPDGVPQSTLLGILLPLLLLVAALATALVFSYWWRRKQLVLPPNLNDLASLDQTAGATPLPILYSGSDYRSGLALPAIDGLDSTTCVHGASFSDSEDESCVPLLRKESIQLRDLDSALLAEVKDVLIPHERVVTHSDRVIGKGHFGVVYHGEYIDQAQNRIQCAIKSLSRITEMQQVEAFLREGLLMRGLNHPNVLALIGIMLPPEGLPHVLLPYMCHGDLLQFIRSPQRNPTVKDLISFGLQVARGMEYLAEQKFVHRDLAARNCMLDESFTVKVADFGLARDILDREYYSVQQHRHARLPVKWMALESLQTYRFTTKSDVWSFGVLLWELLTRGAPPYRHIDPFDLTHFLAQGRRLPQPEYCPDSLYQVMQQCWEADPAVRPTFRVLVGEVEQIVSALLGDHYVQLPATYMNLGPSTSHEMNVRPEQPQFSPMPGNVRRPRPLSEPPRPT

Chain of MET (human) (P08581 25-1390): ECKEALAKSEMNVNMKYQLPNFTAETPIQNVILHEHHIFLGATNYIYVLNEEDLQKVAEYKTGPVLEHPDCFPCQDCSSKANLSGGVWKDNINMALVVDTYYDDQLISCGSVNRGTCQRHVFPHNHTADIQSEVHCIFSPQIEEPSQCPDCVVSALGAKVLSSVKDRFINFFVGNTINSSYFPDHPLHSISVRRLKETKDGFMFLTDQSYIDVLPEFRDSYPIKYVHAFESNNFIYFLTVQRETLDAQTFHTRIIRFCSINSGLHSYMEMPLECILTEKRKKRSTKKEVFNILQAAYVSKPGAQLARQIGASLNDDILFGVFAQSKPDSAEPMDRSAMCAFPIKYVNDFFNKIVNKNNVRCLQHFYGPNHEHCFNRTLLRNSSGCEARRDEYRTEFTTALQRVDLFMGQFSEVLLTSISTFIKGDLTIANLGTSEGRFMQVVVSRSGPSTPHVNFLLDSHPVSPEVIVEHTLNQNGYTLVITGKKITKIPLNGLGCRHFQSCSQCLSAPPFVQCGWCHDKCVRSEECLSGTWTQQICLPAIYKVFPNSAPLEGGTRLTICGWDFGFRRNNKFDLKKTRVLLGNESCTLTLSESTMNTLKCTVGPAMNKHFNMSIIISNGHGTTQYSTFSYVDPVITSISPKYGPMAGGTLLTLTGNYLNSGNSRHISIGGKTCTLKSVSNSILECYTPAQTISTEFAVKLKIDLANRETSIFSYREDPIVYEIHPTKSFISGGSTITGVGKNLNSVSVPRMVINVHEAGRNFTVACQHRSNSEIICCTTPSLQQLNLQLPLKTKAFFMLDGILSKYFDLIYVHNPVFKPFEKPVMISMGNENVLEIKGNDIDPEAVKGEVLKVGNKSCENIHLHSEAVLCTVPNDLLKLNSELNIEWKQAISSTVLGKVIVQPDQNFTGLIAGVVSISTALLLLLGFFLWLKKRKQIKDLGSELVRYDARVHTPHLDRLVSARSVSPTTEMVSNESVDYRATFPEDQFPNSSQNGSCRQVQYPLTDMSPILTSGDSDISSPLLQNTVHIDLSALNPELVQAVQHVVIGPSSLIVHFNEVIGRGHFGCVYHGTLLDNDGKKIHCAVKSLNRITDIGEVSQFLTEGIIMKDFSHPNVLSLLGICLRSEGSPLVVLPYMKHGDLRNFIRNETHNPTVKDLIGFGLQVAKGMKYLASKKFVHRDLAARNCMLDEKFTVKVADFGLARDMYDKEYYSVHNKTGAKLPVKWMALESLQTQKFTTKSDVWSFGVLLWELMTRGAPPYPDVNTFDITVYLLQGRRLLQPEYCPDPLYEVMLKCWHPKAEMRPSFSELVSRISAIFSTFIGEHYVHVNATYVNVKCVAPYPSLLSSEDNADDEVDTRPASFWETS

With `C[C@@H](Oc1c(N)ncc2[nH]ccc12)c1c(Cl)ccc(F)c1Cl` [Example 1, 4-[(R)-1-(2,6-Dichloro-3-fluorophenyl)ethoxy]-1H-pyrrolo[2,3-c]pyridin-5-ylamine], the IC50 in assay [1] and in assay [2] was 5 to 20 µM in each case.

`C[C@@H](Oc1c(N)ncc2c1ccn2C)c1c(Cl)ccc(F)c1Cl` [Example 2, 4-[(R)-1-(2,6-Dichloro-3-fluorophenyl)ethoxy]-1-methyl-1H-pyrrolo[2,3-c]pyridin-5-ylamine]: the IC50 in assay [1] is 5 to 20 µM; in assay [2] it was over 20 µM.

As to `C[C@@H](Oc1c(N)ncc2c1ccn2CCC1CCNCC1)c1c(Cl)ccc(F)c1Cl` [Example 5, 4-[(R)-1-(2,6-Dichloro-3-fluorophenyl)ethoxy]-1-(2-piperidin-4-ylethyl)1H-pyrrolo[2,3-c]pyridin-5-ylamine bis-hydrochloride], the IC50 in assay [1] and in assay [2] was at most 5 µM in each case.

In the case of `C[C@@H](Oc1c(N)ncc2c1ccn2S(=O)(=O)c1ccccc1)c1c(Cl)ccc(F)c1Cl` [Example 6, 1-Benzenesulfonyl-4-[(R)-1-(2,6-dichloro-3-fluorophenyl)ethoxy]-1H-pyrrolo[2,3-c]pyridin-5-ylamine], the values for the IC50 in assay [1] and in assay [2] were 5 to 20 µM and over 20 µM, respectively.

In the case of `Nc1ncc2[nH]ccc2c1-c1cc2ccccc2o1` [Example 7, 4-Benzofuran-2-yl-1H-pyrrolo[2,3-c]pyridin-5-ylamine], the IC50 in assay [1] and in assay [2] was over 20 µM in each case.

In turn, `Nc1ncc2c(ccn2Cc2ccccc2)c1-c1cc2ccccc2o1` [Example 8, [(4-Benzofuran-2-yl)-1-benzyl-1H-pyrrolo[2,3-c]pyridin-5-yl]amine] yielded an IC50 in assay [2] of over 20 µM.

As for `Nc1ncc2c(ccn2CCC2CCNCC2)c1-c1cc2ccccc2o1` [Example 10, [(4-Benzofuran-2-yl)-1-(2-piperidin-4-ylethyl)-1H-pyrrolo[2,3-c]pyridin-5-yl]amine bis-hydrochloride], the IC50 in assay [1] and in assay [2] was at most 5 µM each time.

(Values after patent US20120329826A1, “SUBSTITUTED-5-AMINOPYRROLO/PYRAZOLOPYRIDINES” (OSI Pharmaceuticals,. LLC, priority 2010, published 2012).)
